From the supplement of paper PMC10307832

How the values were obtained:
Assay in all cases: relative viability (nuclei count vs DMSO), 5 days (fraction); higher = more cells survive
[1] = compound: COc1cc(Nc2ncc3c(n2)-c2ccc(Cl)cc2C(c2c(F)cccc2OC)=NC3)ccc1C(=O)O [Alisertib] + Nc1nc2[nH]cc(CCc3ccc(C(=O)N[C@@H](CCC(=O)O)C(=O)O)cc3)c2c(=O)[nH]1 [Pemetrexed] (partner 0.2 µM)
Outline: (§1)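 Each reported value is a median over duplicate plates. It expresses relative viability: treated-well nuclei count divided by vehicle-well nuclei count. Lung cancer cell lines in 1536-well plates were dosed by pin tool a day after seeding, alone with one drug or with a fixed anchor-drug dose plus five library-drug doses (not always all listed) in √10 steps, and nuclei were counted after 5 days.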

[2] = compound: COc1cc(Nc2ncc3c(n2)-c2ccc(Cl)cc2C(c2c(F)cccc2OC)=NC3)ccc1C(=O)O [Alisertib] + Cc1nc(NC(=O)N2CCC[C@H]2C(N)=O)sc1-c1ccnc(C(C)(C)C(F)(F)F)c1 [Alpelisib] (partner 2 µM)
Outline: as §1

[3] = compound: COc1cc(Nc2ncc3c(n2)-c2ccc(Cl)cc2C(c2c(F)cccc2OC)=NC3)ccc1C(=O)O [Alisertib] + O=C(c1cc(Cc2n[nH]c(=O)c3ccccc23)ccc1F)N1CCN(C(=O)C2CC2)CC1 [Olaparib] (partner 8 µM)
Outline: as §1

[4] = compound: COc1cc(Nc2ncc3c(n2)-c2ccc(Cl)cc2C(c2c(F)cccc2OC)=NC3)ccc1C(=O)O [Alisertib] + COc1cc2c(Oc3ccc(NC(=O)C4(C(=O)Nc5ccc(F)cc5)CC4)cc3F)ccnc2cc1OCCCN1CCOCC1 [Foretinib] (partner 0.25 µM)
Outline: as §1

Row | Cell Line | relative viability ([1]; first compound 0.005 µM) | relative viability ([1]; first compound 0.01581 µM) | relative viability ([1]; first compound 0.05 µM) | relative viability ([1]; first compound 0.1581 µM) | relative viability ([1]; first compound 0.5 µM) | relative viability ([2]; first compound 0.005 µM) | relative viability ([2]; first compound 0.01581 µM) | relative viability ([2]; first compound 0.05 µM) | relative viability ([2]; first compound 0.1581 µM) | relative viability ([2]; first compound 0.5 µM) | relative viability ([3]; first compound 0.005 µM) | relative viability ([3]; first compound 0.01581 µM) | relative viability ([3]; first compound 0.05 µM) | relative viability ([3]; first compound 0.1581 µM) | relative viability ([3]; first compound 0.5 µM) | relative viability ([4]; first compound 0.005 µM) | relative viability ([4]; first compound 0.01581 µM) | relative viability ([4]; first compound 0.05 µM) | relative viability ([4]; first compound 0.1581 µM) | relative viability ([4]; first compound 0.5 µM)
1 | PC-14 | 0.103 | 0.138 | 0.146 | 0.0731 | 0.052 | 0.901 | 0.84 | 0.686 | 0.277 | 0.106 | 0.23 | 0.225 | 0.13 | 0.0581 | 0.0485 | 0.849 | 0.77 | 0.837 | 0.473 | 0.135
2 | NCI-H1437 | 0.28 | 0.261 | 0.235 | 0.231 | 0.166 | 0.91 | 0.836 | 0.425 | 0.213 | 0.112 | 0.585 | 0.47 | 0.383 | 0.257 | 0.179 | 1.08 | 0.939 | 0.796 | 0.454 | 0.236
3 | NCI-H2170 | 0.267 | 0.282 | 0.236 | 0.209 | 0.183 | 0.732 | 0.749 | 0.424 | 0.34 | 0.199 | 0.601 | 0.509 | 0.307 | 0.206 | 0.163 | 0.715 | 0.972 | 0.605 | 0.563 | 0.181
4 | LCLC-103H | 0.497 | 0.511 | 0.417 | 0.399 | 0.347 | 0.849 | 1.03 | 0.313 | 0.335 | 0.333 | 0.598 | 0.709 | 0.356 | 0.357 | 0.353 | 0.759 | 0.544 | 0.283 | 0.272 | 0.236
5 | NCI-H441 | 0.288 | 0.279 | 0.249 | 0.145 | 0.142 | 0.787 | 0.528 | 0.172 | 0.153 | 0.157 | 0.487 | 0.471 | 0.139 | 0.173 | 0.172 | 0.845 | 0.546 | 0.308 | 0.262 | 0.232
6 | SW 1573 | 0.781 | 0.767 | 0.269 | 0.21 | 0.114 | 0.768 | 0.798 | 0.455 | 0.272 | 0.171 | 0.486 | 0.294 | 0.209 | 0.136 | 0.115 | 0.911 | 0.772 | 0.667 | 0.245 | 0.172
7 | BEN | 0.629 | 0.784 | 0.335 | 0.358 | 0.342 | 1.05 | 0.923 | 0.37 | 0.232 | 0.218 | 0.983 | 0.917 | 0.295 | 0.269 | 0.341 | 0.486 | 0.57 | 0.277 | 0.213 | 0.21
8 | LC-2-ad | 0.263 | 0.228 | 0.215 | 0.177 | 0.175 | 0.766 | 0.631 | 0.209 | 0.138 | 0.0966 | 0.642 | 0.523 | 0.211 | 0.245 | 0.192 | 0.803 | 0.597 | 0.503 | 0.351 | 0.285
9 | COR-L23 | 0.197 | 0.196 | 0.189 | 0.179 | 0.134 | 0.777 | 0.697 | 0.369 | 0.155 | 0.0816 | 0.304 | 0.298 | 0.183 | 0.137 | 0.101 | 0.848 | 0.823 | 0.606 | 0.243 | 0.128
10 | SK-LU-1 | 0.972 | 0.722 | 0.405 | 0.333 | 0.267 | 0.929 | 0.458 | 0.286 | 0.302 | 0.247 | 0.437 | 0.447 | 0.344 | 0.247 | 0.183 | 0.818 | 0.66 | 0.324 | 0.227 | 0.182
11 | NCI-H1915 | 0.432 | 0.382 | 0.325 | 0.262 | 0.219 | 0.934 | 0.808 | 0.385 | 0.354 | 0.199 | 0.218 | 0.186 | 0.142 | 0.138 | 0.129 | 0.998 | 0.907 | 0.431 | 0.463 | 0.236
12 | NCI-H647 | 0.155 | 0.178 | 0.122 | 0.0903 | 0.0745 | 1.05 | 0.691 | 0.341 | 0.148 | 0.0808 | 0.367 | 0.278 | 0.086 | 0.0609 | 0.0531 | 1.08 | 1.04 | 0.691 | 0.301 | 0.131
13 | NCI-H2009 | 0.959 | 0.987 | 0.724 | 0.475 | 0.168 | 1.15 | 1.02 | 0.417 | 0.375 | 0.265 | 0.645 | 0.689 | 0.275 | 0.291 | 0.148 | 1.19 | 1.05 | 0.618 | 0.429 | 0.248
14 | NCI-H2126 | 0.639 | 0.641 | 0.602 | 0.316 | 0.276 | 0.746 | 0.746 | 0.384 | 0.322 | 0.246 | 0.816 | 0.785 | 0.516 | 0.295 | 0.321 | 1.08 | 1.02 | 0.455 | 0.294 | 0.382
15 | LXF-289 | 0.794 | 0.61 | 0.376 | 0.169 | 0.174 | 0.909 | 0.592 | 0.215 | 0.133 | 0.0979 | 0.757 | 0.593 | 0.113 | 0.101 | 0.131 | 0.858 | 0.675 | 0.218 | 0.187 | 0.157
16 | PC-3 [JPC-3] | 1.06 | 0.988 | 0.885 | 0.388 | 0.287 | 0.952 | 0.98 | 0.751 | 0.598 | 0.369 | 1.09 | 1.02 | 0.802 | 0.632 | 0.483 | 0.97 | 0.868 | 0.706 | 0.531 | 0.398
